# Measured values from patent US8471005B2 (Cephalon, Inc., priority 2008, dated 2013).
# pIC50: −log10 of the molar value. Like-named read-outs stand apart in the source and are kept apart here.
# How the values were obtained:
# JAK2 = target: T1, JAK2 (Homo sapiens, UniProt O60674); assay: Recombinant Human JAK2 Kinase Assay (TRF); assay type: biochemical; settings: read-out: JAK2 Potency
# T1 construct: host or cells: baculovirus expression system
# In short: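 Baculovirus-expressed JAK2 (15 ng/ml) phosphorylated a biotinylated 15-mer peptide captured on Neutravidin, in 20 mM HEPES pH 7.2, 0.2 μM ATP, 1 mM MnCl2, 0.1% BSA, 2.5% DMSO final, 20 min at room temperature. Phosphoproduct detected by time-resolved fluorescence with Eu-N1-labelled PY100 antibody.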
# ALK = target: T2, ALK (Homo sapiens, UniProt Q9UM73); assay: ALK Kinase Assay (ELISA/TRF, PLC-γ substrate); assay type: biochemical; settings: read-out: ALK Potency
# T2 construct: host or cells: baculovirus expression system
# In short: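 First, plates are coated with substrate (phospholipase C-γ, 10 μg/mL, TBS). Next, 30 ng/ml ALK initiates phosphorylation for 15 min at 37° C. Then Eu-N1 PT66 antibody is added for detection, and a nonlinear dose-response fit of percent inhibition yields IC50.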
# [1] = JAK2 kinase inhibition, 0.2 μM ATP
# [2] = ALK kinase inhibition, 1 μM ATP
# T1 sequence (O60674 whole entry): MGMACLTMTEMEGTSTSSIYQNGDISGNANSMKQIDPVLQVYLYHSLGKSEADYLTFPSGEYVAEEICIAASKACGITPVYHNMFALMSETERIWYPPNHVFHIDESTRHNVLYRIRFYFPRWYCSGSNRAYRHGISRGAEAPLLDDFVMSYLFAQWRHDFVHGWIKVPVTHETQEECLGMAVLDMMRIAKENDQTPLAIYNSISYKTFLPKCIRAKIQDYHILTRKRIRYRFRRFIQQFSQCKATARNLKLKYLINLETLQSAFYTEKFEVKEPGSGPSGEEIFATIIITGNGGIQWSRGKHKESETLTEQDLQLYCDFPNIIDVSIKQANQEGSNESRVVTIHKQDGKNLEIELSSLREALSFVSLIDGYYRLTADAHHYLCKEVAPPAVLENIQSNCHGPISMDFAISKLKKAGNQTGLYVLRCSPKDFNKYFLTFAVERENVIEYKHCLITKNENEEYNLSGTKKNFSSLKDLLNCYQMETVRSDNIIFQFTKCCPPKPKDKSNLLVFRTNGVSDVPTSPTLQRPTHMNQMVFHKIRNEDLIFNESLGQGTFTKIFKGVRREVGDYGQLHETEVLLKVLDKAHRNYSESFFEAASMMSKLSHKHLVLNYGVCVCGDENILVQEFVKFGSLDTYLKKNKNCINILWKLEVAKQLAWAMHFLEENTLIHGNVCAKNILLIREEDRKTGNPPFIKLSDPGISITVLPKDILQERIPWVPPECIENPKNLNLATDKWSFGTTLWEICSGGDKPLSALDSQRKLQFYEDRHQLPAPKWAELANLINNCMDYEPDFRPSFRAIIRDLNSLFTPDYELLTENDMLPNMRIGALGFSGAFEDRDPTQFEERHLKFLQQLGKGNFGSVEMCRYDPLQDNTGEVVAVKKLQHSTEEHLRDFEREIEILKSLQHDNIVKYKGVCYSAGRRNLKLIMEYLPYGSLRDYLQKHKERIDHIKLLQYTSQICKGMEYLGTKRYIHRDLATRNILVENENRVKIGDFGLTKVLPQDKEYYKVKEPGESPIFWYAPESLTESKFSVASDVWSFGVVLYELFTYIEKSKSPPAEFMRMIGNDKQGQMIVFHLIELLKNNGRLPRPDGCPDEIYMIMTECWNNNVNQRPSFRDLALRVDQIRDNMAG
# T2 sequence (Q9UM73 19-1620): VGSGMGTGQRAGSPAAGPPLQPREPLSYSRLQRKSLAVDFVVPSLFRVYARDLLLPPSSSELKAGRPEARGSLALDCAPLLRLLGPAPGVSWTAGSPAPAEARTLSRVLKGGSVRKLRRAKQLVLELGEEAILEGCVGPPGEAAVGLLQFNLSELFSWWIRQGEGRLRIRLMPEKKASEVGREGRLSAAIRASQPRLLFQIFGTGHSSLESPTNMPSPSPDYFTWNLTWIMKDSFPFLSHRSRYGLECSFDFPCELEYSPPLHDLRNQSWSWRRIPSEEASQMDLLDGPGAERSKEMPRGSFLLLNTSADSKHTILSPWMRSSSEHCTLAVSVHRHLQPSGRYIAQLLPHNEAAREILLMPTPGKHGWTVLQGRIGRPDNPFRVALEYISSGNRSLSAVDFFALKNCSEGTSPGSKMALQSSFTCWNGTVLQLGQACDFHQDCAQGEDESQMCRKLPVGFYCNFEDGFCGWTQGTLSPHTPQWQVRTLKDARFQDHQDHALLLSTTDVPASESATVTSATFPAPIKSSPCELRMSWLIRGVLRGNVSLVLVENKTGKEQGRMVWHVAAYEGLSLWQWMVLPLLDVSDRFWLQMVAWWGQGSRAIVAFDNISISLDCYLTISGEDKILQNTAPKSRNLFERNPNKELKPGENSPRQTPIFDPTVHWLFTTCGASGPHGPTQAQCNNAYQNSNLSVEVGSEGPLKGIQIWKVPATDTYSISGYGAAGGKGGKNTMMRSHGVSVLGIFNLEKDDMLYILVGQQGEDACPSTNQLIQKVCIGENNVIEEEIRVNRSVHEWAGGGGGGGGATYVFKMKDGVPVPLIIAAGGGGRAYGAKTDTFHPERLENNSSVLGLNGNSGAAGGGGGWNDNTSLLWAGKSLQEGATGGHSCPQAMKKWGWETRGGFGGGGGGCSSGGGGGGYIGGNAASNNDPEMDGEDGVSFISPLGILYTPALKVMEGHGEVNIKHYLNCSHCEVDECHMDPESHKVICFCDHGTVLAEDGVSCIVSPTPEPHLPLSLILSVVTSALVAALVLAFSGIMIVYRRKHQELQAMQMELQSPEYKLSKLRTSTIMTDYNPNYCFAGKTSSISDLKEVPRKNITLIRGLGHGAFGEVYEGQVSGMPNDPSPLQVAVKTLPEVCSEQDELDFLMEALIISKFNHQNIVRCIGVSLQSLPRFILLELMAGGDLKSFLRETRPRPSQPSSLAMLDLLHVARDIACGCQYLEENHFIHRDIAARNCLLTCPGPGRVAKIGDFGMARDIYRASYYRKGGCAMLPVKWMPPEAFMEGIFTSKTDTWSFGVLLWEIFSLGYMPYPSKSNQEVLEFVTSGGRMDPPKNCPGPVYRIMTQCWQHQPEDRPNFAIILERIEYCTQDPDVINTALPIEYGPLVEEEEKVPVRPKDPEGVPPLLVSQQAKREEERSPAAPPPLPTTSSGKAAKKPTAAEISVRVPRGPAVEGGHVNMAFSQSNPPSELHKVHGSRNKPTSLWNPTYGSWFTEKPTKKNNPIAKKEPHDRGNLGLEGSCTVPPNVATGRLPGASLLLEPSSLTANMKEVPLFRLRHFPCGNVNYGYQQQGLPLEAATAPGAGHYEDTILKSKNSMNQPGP
pIC50 (JAK2; JAK2 Kinase Inhibition),pIC50 (ALK; ALK Kinase Inhibition),pIC50 (JAK2; [1]),pIC50 (ALK; [2]),Compound
> 7.00,> 7.00,–,–,"COc1ccccc1-c1ccc2cnc(Nc3ccc(N4CCC(N5CCOCC5)CC4)cc3)nn12 [Example 334, [7-(2-Methoxy-phenyl)-pyrrolo[2,1-f][1,2,4]triazin-2-yl]-[4-(4-morpholin-4-yl-piperidin-1-yl)-phenyl]-amine]"
–,–,> 7.00,5.00 to 6.00,"COc1ccc(-c2ccc3cnc(Nc4ccc5c(c4)NC(=O)CC5)nn23)cn1 [Example 979, 7-[7-(6-Methoxy-pyridin-3-yl)-pyrrolo[2,1-f][1,2,4]triazin-2-ylamino]-3,4-dihydro-1H-quinolin-2-one]"
–,–,6.00 to 7.00,> 7.00,"COc1cc(C2CCN(CC(=O)N3CCNCC3)CC2)ccc1Nc1ncc2ccc(-c3ccccc3OC)n2n1 [Example 1276, 2-(4-{3-Methoxy-4-[7-(2-methoxy-phenyl)-pyrrolo[2,1-f][1,2,4]triazin-2-ylamino]-phenyl}-piperidin-1-yl)-1-piperazin-1-yl-ethanone]"
> 7.00,5.00 to 6.00,–,–,"CC(=O)Nc1cccc(Nc2ncc3ccc(-c4cnn(C)c4)n3n2)c1 [Example 1378, N-{3-[7-(1-Methyl-1H-pyrazol-4-yl)-pyrrolo[2,1-f][1,2,4]triazin-2-ylamino]-phenyl}-acetamide]"
–,–,> 7.00,> 7.00,"OC[C@@H](O)CN1CCC(c2ccc(Nc3ncc4ccc(-c5cccc(Cl)c5)n4n3)cc2)CC1 [Example 1130, (S)-3-(4-{4-[7-(3-Chloro-phenyl)-pyrrolo[2,1-f][1,2,4]triazin-2-ylamino]-phenyl}-piperidin-1-yl)-propane-1,2-diol]"
–,–,6.00 to 7.00,5.00 to 6.00,"COc1ccccc1-c1cc2cnc(Nc3ccc(N4CCN(C)CC4)cc3)nn2c1 [Example 1156, [6-(2-Methoxy-phenyl)-pyrrolo[2,1-f][1,2,4]triazin-2-yl]-[4-(4-methyl-piperazin-1-yl)-phenyl]-amine]"
> 7.00,6.00 to 7.00,–,–,"CN1CCN(CCCOc2ccc(Nc3ncc4ccc(-c5cccnc5)n4n3)cc2)CC1 [Example 120, {4-[3-(4-Methyl-piperazin-1-yl)-propoxy]-phenyl}-(7-pyridin-3-yl-pyrrolo[2,1-f][1,2,4]triazin-2-yl)-amine]"
> 7.00,6.00 to 7.00,–,–,"CS(=O)(=O)c1cccc(-c2ccc3cnc(Nc4ccc(N5CCOCC5)cc4)nn23)c1 [Example 43, [7-(3-Methanesulfonyl-phenyl)-pyrrolo[2,1-f][1,2,4]triazin-2-yl]-(4-morpholin-4-yl-phenyl)-amine]"
> 7.00,5.00 to 6.00,–,–,"C[S+]([O-])c1ccccc1-c1ccc2cnc(Nc3ccc(N4CCOCC4)cc3)nn12 (stereo not drawn) [Example 405, [7-(2-Methanesulfinyl-phenyl)-pyrrolo[2,1-f][1,2,4]triazin-2-yl]-(4-morpholin-4-yl-phenyl)-amine]"
–,–,> 7.00,6.00 to 7.00,"CN(c1ccccc1-c1ccc2cnc(Nc3ccc4c(cnn4CCN4CCOCC4)c3)nn12)S(C)(=O)=O [Example 1333, N-Methyl-N-(2-{2-[1-(2-morpholin-4-yl-ethyl)-1H-indazol-5-ylamino]-pyrrolo[2,1-f][1,2,4]triazin-7-yl}-phenyl)-methanesulfonamide]"
–,–,6.00 to 7.00,> 7.00,"COc1cc(N2CCC(N3CCOCC3)C2)ccc1Nc1ncc2ccc(-c3ccccc3N(C)S(C)(=O)=O)n2n1 (racemic) [Example 782, (±)-N-(2-{2-[2-Methoxy-4-(3-morpholin-4-yl-pyrrolidin-1-yl)-phenylamino]-pyrrolo[2,1-f][1,2,4]triazin-7-yl}-phenyl)-N-methyl-methanesulfonamide]"
> 7.00,< 5.00,–,–,"CS(=O)(=O)c1ccc(-c2ccc3cnc(Nc4ccc(N5CCCCC5)cc4)nn23)cc1 [Example 61, [7-(4-Methanesulfonyl-phenyl)-pyrrolo[2,1-f][1,2,4]triazin-2-yl]-(4-piperidin-1-yl-phenyl)-amine]"
–,–,> 7.00,6.00 to 7.00,"COc1ccccc1-c1ccc2cnc(Nc3ccc4c(c3)N(C)CCO4)nn12 [Example 645, [7-(2-Methoxy-phenyl)-pyrrolo[2,1-f][1,2,4]triazin-2-yl]-(4-methyl-3,4-dihydro-2H-benzo[1,4]oxazin-6-yl)-amine]"
–,–,> 7.00,> 7.00,"N-[2-(2-{4-[4-(2-Hydroxy-ethyl)-piperazin-1-yl]-phenylamino}-pyrrolo[2,1-f][1,2,4]triazin-7-yl)-phenyl]-N-methyl-methanesulfonamide [Example 1171]"
–,–,6.00 to 7.00,> 7.00,"COc1cc(C2CCN(C(=O)C(C)(C)N)CC2)ccc1Nc1ncc2ccc(-c3ccccc3OC)n2n1 [Example 821, 2-Amino-1-(4-{3-methoxy-4-[7-(2-methoxy-phenyl)-pyrrolo[2,1-f][1,2,4]triazin-2-ylamino]-phenyl}-piperidin-1-yl)-2-methyl-propan-1-one]"
–,–,> 7.00,6.00 to 7.00,"CN1CCN(c2cccc(Nc3ncc4ccc(-c5cnn(CCC#N)c5)n4n3)c2)CC1 [Example 977, 3-(4-{2-[3-(4-Methyl-piperazin-1-yl)-phenylamino]-pyrrolo[2,1-f][1,2,4]triazin-7-yl}-pyrazol-1-yl)-propionitrile]"
> 7.00,5.00 to 6.00,–,–,"CC(=O)Nc1cccc(Nc2ncc3ccc(-c4cccc(N5CCCS5(=O)=O)c4)n3n2)c1 [Example 1508, N-[3-({7-[3-(1,1-Dioxido-1,2-thiazolidin-2-yl)phenyl]pyrrolo[2,1-f][1,2,4]triazin-2-yl}amino)phenyl]acetamide]"
> 7.00,< 5.00,–,–,"CN(C)S(=O)(=O)c1ccc(-c2ccc3cnc(Nc4ccc(N5CCCCC5)cc4)nn23)cc1 [Example 86, N,N-Dimethyl-4-[2-(4-piperidin-1-yl-phenylamino)-pyrrolo[2,1-f][1,2,4]triazin-7-yl]-benzenesulfonamide]"
5.00 to 6.00,> 7.00,–,–,"COc1cc(C2CCN(CC(N)=O)CC2)ccc1Nc1ncc2ccc(-c3cccc4c3OC(F)(F)O4)n2n1 [Example 1533, 2-(4-{4-[7-(2,2-Difluoro-benzo[1,3]dioxol-4-yl)-pyrrolo[2,1-f][1,2,4]triazin-2-ylamino]-3-methoxy-phenyl}-piperidin-1-yl)-acetamide]"
> 7.00,5.00 to 6.00,–,–,"CC(C)(C)NS(=O)(=O)c1cccc(-c2ccc3cnc(Nc4ccc(C(N)=O)cc4)nn23)c1 [Example 1399, 4-[7-(3-tert-Butylsulfamoyl-phenyl)-pyrrolo[2,1-f][1,2,4]triazin-2-ylamino]-benzamide]"
–,–,> 7.00,> 7.00,"[7-(6-Methoxy-pyridin-3-yl)-pyrrolo[2,1-f][1,2,4]triazin-2-yl]-(2-methyl-1,2,3,4-tetrahydro-isoquinolin-7-yl)-amine [Example 985]"
–,–,> 7.00,> 7.00,"COc1ccc(-c2ccc3cnc(Nc4ccc(C5CCN(CC(N)=O)CC5)c(C)c4)nn23)cn1 [Example 934, 2-(4-{4-[7-(6-Methoxy-pyridin-3-yl)-pyrrolo[2,1-f][1,2,4]triazin-2-ylamino]-2-methyl-phenyl}-piperidin-1-yl)-acetamide]"
> 7.00,6.00 to 7.00,–,–,"CN1CCN(c2cccc(Nc3ncc4ccc(-c5cccc(N6CCCS6(=O)=O)c5)n4n3)c2)CC1 [Example 1509, 7-[3-(1,1-Dioxido-1,2-thiazolidin-2-yl)phenyl]-N-[3-(4-methylpiperazin-1-yl)phenyl]pyrrolo[2,1-f][1,2,4]triazin-2-amine]"
–,–,> 7.00,> 7.00,"N#CCCc1cccc(-c2ccc3cnc(Nc4ccc(N5CCC(N6CCOCC6)CC5)cc4)nn23)c1 [Example 1150, 3-(3-{2-[4-(4-Morpholin-4-yl-piperidin-1-yl)-phenylamino]-pyrrolo[2,1-f][1,2,4]triazin-7-yl}-phenyl)-propionitrile]"
> 7.00,6.00 to 7.00,–,–,"COc1ccccc1-c1ccc2cnc(Nc3cc(OC)c(OC)c(OC)c3)nn12 [Example 142, [7-(2-Methoxy-phenyl)-pyrrolo[2,1-f][1,2,4]triazin-2-yl]-(3,4,5-trimethoxy-phenyl)-amine]"
> 7.00,> 7.00,–,–,"COc1ccccc1-c1ccc2cnc(Nc3ccc(OCCN4CCOCC4)cc3)nn12 [Example 128, [7-(2-Methoxy-phenyl)-pyrrolo[2,1-f][1,2,4]triazin-2-yl]-[4-(2-morpholin-4-yl-ethoxy)-phenyl]-amine]"
5.00 to 6.00,> 7.00,–,–,"COc1ccc(OC)c(-c2ccc3cnc(Nc4ccc(N5CCN(C[C@H](C)O)CC5)cc4OC)nn23)c1 [Example 1477, (S)-1-(4-{4-[7-(2,5-Dimethoxy-phenyl)-pyrrolo[2,1-f][1,2,4]triazin-2-ylamino]-3-methoxy-phenyl}-piperazin-1-yl)-propan-2-ol]"
–,–,> 7.00,6.00 to 7.00,"CC(=O)N1CC(C)(C)c2ccc(Nc3ncc4ccc(-c5cnn(C)c5)n4n3)cc21 [Example 968, 1-{3,3-Dimethyl-6-[7-(1-methyl-1H-pyrazol-4-yl)-pyrrolo[2,1-f][1,2,4]triazin-2-ylamino]-2,3-dihydro-indol-1-yl}-ethanone]"

Compound,pIC50 (JAK2; JAK2 Kinase Inhibition),pIC50 (ALK; ALK Kinase Inhibition),pIC50 (JAK2; [1]),pIC50 (ALK; [2])
"4-[2-(4-Morpholin-4-yl-phenylamino)-pyrrolo[2,1-f][1,2,4]triazin-7-yl]-piperidine-1-carboxylic acid tert-butyl ester [Example 1128]",–,–,> 7.00,< 5.00
CN1CCN(c2ccc(Nc3ncc4ccc(-c5ccccc5S(=O)(=O)NC(C)(C)C)n4n3)cc2)CC1 [Example 411],> 7.00,> 7.00,–,–
